Test results as given in patent US12084444B2, “Spiro-lactam NMDA modulators and methods of using same” (Tenacia Biotechnology (Hong Kong) Co., Limited, priority 2016, dated 2024).

How the values were obtained:
[1] = target: T1, NMDAR2A expressing HEK cell membranes (Homo sapiens, UniProt Q05586+Q12879); assay: NMDAR agonist assay, [3H]MK-801 binding, NMDAR2A; assay type: biochemical; set-up: key to NMDAR2A B: log EC50: 0=−; ≥1×10^−9 M (e.g., −8)=+; <1×10^−9 M (e.g., −10)=++; conditions: 0.25 h, 50 μM glutamate; read-out: NMDAR2A A: % maximal [3H]MK-801 binding relative to 1 mM glycine
T1 construct: expressed in transfected cells; host or cells: HEK cells (membrane extract)
Procedure, shortened: (§1)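 HEK membranes (300 μg protein) expressing each subtype were preincubated 15 min at 25 °C with 50 μM glutamate and compound (1×10^−15–1×10^−7 M) or 1 mM glycine. [3H]MK-801 (0.3 μCi) binding then ran 15 min under nonequilibrium conditions, followed by filtration. EC50 and % maximal binding against 1 mM glycine came from three-parameter fits of baseline-subtracted DPM (N=2).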

[2] = target: T2, NMDAR2A expressing HEK cell membranes (Homo sapiens, UniProt Q12879); assay: NMDAR agonist assay, [3H]MK-801 binding, NMDAR2A; assay type: biochemical; set-up: key to NMDAR2A B: log EC50: 0=−; ≥1×10^−9 M (e.g., −8)=+; <1×10^−9 M (e.g., −10)=++; conditions: 50 μM glutamate
T2 construct: expressed in transfected cells; host or cells: HEK cells (membrane extract)
Procedure, shortened: as §1

[3] = target: T3, NMDAR2B expressing HEK cell membranes (Homo sapiens, UniProt Q05586+Q13224); assay: NMDAR agonist assay, [3H]MK-801 binding, NMDAR2B; assay type: biochemical; conditions: 50 μM glutamate; for EC50: read-out: NMDAR2B B: log EC50 (converted); for Emax: 0.25 h, read-out: NMDAR2B A: % maximal [3H]MK-801 binding relative to 1 mM glycine
T3 construct: expressed in transfected cells; host or cells: HEK cells (membrane extract)
Procedure, shortened: as §1

[4] = target: T4, NMDAR2C expressing HEK cell membranes (Homo sapiens, UniProt Q14957); assay: NMDAR agonist assay, [3H]MK-801 binding, NMDAR2C; assay type: biochemical; conditions: 50 μM glutamate
T4 construct: expressed in transfected cells; host or cells: HEK cells (membrane extract)
Method: (§2) Assays were conducted as described by Moskal et al., “GLYX-13: a monoclonal antibody-derived peptide that acts as an N-methyl-D-aspartate receptor modulator,” Neuropharmacology, 49, 1077-87, 2005. These studies were designed to determine if the test compounds act to facilitate NMDAR activation in NMDAR2A, NMDAR2B, NMDAR2C or NMDAR2D expressing HEK cell membranes as measured by increases in [^3H]MK-801 binding.
(§3) In the assay, 300 μg of NMDAR expressing HEK cell membrane extract protein was preincubated for 15 minutes at 25° C. in the presence of saturating concentrations of glutamate (50 μM) and varying concentrations of test compound (1×10^−15 M-1×10^−7 M), or 1 mM glycine. Following the addition of 0.3 μCi of [^3H]MK-801 (22.5 Ci/mmol), reactions were again incubated for 15 minutes at 25° C. (nonequilibrium conditions). Bound and free [^3H]MK-801 were separated via rapid filtration using a Brandel apparatus.
In analyzing the data, the DPM (disintegrations per minute) of [^3H]MK-801 remaining on the filter were measured for each concentration of test compound or for 1 mM glycine. The DPM values for each concentration of a ligand (N=2) were averaged. The baseline value was determined from the best fit curve of the DPM values modeled using the GraphPad program and the log(agonist) vs. response(three parameters) algorithm was then subtracted from all points in the dataset. The % maximal [^3H]MK-801 binding was then calculated relative to that of 1 mM glycine: all baseline subtracted DPM values were divided by the average value for 1 mM glycine. The EC50 and % maximal activity were then obtained from the best fit curve of the % maximal [^3H]MK-801 binding data modelled using the GraphPad program and the log(agonist) vs. response(three parameters) algorithm. […]

[5] = target: T5, NMDAR2D expressing HEK cell membranes (Homo sapiens, UniProt O15399); assay: NMDAR agonist assay, [3H]MK-801 binding, NMDAR2D; assay type: biochemical; conditions: 50 μM glutamate
T5 construct: expressed in transfected cells; host or cells: HEK cells (membrane extract)
Method: as §2, §3
(§4) In analyzing the data, the DPM (disintegrations per minute) of [^3H]MK-801 remaining on the filter were measured for each concentration of test compound or for 1 mM glycine. The DPM values for each concentration of a ligand (N=2) were averaged. The baseline value was determined from the best fit curve of the DPM values modeled using the GraphPad program and the log(agonist) vs. response(three parameters) algorithm was then subtracted from all points in the dataset. The % maximal [^3H]MK-801 binding was then calculated relative to that of 1 mM glycine: all baseline subtracted DPM values were divided by the average value for 1 mM glycine. The EC50 and % maximal activity were then obtained from the best fit curve of the % maximal [^3H]MK-801 binding data modelled using the GraphPad program and the log(agonist) vs. response(three parameters) algorithm.
(§5) The tables below summarize the results for the wild type NMDAR agonists NMDAR2A, NMDAR2B, NMDAR2C, and NMDAR2D, and whether the compound is not an agonist (−), is an agonist (+), or is a strong agonist (++), where column A is based on the % maximal [^3H]MK-801 binding relative to 1 mM glycine (−=0; <100%=+; and >100%=++); and column B is based on log EC50 values (0=−; ≥1×10^−9 M (e.g., −8)=+; and <1×10^−9 M (e.g., −10)=++).

[6] = target: T6, NMDAR2D expressing HEK cell membranes (Homo sapiens, UniProt O15399+Q05586); assay: NMDAR agonist assay, [3H]MK-801 binding, NMDAR2D; assay type: biochemical; conditions: 50 μM glutamate; read-out: NMDAR2D B: log EC50 (converted)
T6 construct: expressed in transfected cells; host or cells: HEK cells (membrane extract)
Method: as §2, §3, §4, §5

IV pharmacokinetics = assay: IV pharmacokinetics; set-up: species or system Sprague Dawley rats; conditions: Sprague Dawley, in vivo, rat, 2 mg/kg, normal saline; for Vd: read-out: Vss
Method: Sprague Dawley rats were dosed intravenously using a normal saline formulation containing 2 mg/kg of the compounds identified in the below table. The table below summarizes the results of the IV pharmacokinetics.

[7] = Oral pharmacokinetics (plasma, brain, CSF); assay type: in vivo, Sprague Dawley rats; conditions: rat, per os, 10 mg/kg; for AUC(0-t) / bioavailability / Tmax / Cmax: Sprague Dawley, plasma, po; for Tmax: normal saline
Method: In another experiment, Sprague Dawley rats were dosed per os using a normal saline formulation containing 10 mg/kg of the compounds identified in the table below. Plasma, brain, and CSF samples were analyzed at various time points over a 24 hour period. The table below summarizes the results of the oral pharmacokinetics.

Sprague Dawley rats = assay: Porsolt forced swim test; assay type: in vivo; conditions: 0.1 mg/kg; for % reduction in float time: relative to vehicle group
Method: A non-clinical in vivo pharmacology study (Porsolt assay) was performed to measure antidepressant-like effects. A negative control (0.5% sodium carboxymethyl cellulose in 0.9% sterile saline vehicle) and a positive control (fluoxetine) are shown for comparison against test compound. The study allowed for the evaluation of the effects of each compound on the Porsolt forced swim test as assessed by the rats' response (reduced floating time) during a 5-minute swimming test.
Male 2-3 month old Sprague Dawley rats were used (Harlan, Indianapolis, IN). Rats were housed in Lucite cages with aspen wood chip bedding, maintained on a 12:12 light:dark cycle (lights on at 5 AM), and given ad libitum access to Purina lab chow (USA) and tap water throughout the study.
The Porsolt forced swim test adapted for use in rats was performed as described by Burgdorf et al., (The long-lasting antidepressant effects of rapastinel (GLYX-13) are associated with a metaplasticity process in the medial prefrontal cortex and hippocampus. Neuroscience 308:202-211, 2015). Animals were placed in a 46 cm tall×20 cm in diameter clear glass tube filled to 30 cm with tap water (23±1° C.) for 15 min on the first day (habituation) and 5 min on the subsequent test day. Positive control fluoxetine was dosed 3 times (24 h, 5 h and 1 h) prior to testing. Animals were tested 1 h or 24 h post-dosing with the test compounds or vehicle. Animals received a 15 min habituation session 1 day before the 5 min test. Water was changed after every other animal. Animals were videotaped, and floating time as defined as the minimal amount of effort required to keep the animals head above water was scored offline by a blinded experimenter with high inter-rater reliability (Pearson's r>0.9).
Each compound tested at dose level shown. Significance vs. vehicle group for each experiment is marked. […] A compound marked “No” was not statistically significant from vehicle. Data was averaged for test compound and vehicle groups (N approximately 8 per group) and the percent reduction in floating for group treated with test compound relative to group treated with vehicle is shown.

T3 sequence (Q13224 27-1484, other chains not shown): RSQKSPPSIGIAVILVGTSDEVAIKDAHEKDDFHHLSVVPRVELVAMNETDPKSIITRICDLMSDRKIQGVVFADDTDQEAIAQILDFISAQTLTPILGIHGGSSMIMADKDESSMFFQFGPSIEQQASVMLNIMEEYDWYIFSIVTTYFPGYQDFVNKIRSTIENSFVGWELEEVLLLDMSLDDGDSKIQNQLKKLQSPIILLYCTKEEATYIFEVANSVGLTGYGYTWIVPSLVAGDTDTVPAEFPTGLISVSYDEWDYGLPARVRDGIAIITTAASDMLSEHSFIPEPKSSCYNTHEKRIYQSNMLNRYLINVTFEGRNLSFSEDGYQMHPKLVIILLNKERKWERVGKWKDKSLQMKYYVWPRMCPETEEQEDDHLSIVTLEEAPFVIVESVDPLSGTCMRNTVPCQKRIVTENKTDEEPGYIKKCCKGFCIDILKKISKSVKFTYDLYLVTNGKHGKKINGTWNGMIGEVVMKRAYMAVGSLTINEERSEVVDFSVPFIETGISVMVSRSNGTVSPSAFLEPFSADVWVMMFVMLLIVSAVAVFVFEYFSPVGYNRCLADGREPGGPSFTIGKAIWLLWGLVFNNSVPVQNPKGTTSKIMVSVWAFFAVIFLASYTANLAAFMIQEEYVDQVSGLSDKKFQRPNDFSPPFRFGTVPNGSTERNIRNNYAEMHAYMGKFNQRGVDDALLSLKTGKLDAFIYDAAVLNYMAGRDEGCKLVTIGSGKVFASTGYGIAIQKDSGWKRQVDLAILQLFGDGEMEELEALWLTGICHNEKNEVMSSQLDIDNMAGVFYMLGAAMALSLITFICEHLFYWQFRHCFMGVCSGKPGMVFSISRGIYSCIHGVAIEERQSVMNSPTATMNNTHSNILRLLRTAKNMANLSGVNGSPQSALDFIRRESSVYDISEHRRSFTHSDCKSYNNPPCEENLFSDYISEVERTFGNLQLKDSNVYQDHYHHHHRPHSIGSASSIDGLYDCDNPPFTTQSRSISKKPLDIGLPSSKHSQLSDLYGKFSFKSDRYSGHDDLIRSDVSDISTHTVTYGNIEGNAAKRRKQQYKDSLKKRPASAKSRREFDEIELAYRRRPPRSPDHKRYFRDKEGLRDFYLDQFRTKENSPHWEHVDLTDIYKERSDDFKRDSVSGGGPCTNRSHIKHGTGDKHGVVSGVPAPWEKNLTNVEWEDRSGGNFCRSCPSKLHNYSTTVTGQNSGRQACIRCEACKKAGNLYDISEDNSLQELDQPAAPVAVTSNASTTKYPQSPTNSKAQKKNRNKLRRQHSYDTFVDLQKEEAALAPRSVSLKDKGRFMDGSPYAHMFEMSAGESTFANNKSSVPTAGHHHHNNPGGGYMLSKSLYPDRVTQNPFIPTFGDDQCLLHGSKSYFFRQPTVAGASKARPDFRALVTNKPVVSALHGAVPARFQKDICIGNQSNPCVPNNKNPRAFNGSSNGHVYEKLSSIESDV
T4 sequence (Q14957 20-1233, other chains not shown): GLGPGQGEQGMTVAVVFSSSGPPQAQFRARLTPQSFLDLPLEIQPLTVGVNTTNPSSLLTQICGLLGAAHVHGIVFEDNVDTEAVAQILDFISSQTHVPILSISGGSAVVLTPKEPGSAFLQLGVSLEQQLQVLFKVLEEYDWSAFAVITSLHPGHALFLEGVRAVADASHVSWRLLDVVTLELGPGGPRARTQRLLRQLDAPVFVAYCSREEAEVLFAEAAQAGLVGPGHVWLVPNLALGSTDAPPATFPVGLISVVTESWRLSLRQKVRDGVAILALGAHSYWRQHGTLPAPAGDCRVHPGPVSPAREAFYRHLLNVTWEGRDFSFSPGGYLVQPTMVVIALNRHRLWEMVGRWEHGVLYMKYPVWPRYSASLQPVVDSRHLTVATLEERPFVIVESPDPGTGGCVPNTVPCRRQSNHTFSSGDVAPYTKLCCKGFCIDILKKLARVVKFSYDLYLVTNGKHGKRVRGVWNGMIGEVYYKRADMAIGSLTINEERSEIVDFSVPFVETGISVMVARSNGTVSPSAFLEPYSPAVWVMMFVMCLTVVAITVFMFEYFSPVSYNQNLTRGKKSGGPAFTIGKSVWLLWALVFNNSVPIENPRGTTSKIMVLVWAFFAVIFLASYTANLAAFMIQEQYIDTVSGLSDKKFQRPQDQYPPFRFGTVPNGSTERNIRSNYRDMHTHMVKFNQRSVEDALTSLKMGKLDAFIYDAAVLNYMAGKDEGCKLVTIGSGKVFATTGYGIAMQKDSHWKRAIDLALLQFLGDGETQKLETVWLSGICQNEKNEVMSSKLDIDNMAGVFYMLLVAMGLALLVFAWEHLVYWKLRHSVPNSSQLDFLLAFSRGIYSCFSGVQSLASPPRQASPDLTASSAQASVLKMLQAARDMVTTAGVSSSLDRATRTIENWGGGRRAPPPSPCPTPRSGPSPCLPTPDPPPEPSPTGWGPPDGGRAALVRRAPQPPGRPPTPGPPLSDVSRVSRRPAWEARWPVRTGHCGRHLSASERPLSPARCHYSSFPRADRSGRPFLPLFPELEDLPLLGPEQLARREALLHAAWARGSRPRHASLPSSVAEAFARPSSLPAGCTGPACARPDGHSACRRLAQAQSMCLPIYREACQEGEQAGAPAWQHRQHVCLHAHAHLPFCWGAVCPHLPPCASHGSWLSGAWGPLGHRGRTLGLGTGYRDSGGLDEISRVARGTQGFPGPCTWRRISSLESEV
T2 sequence (Q12879 23-1464, other chains not shown): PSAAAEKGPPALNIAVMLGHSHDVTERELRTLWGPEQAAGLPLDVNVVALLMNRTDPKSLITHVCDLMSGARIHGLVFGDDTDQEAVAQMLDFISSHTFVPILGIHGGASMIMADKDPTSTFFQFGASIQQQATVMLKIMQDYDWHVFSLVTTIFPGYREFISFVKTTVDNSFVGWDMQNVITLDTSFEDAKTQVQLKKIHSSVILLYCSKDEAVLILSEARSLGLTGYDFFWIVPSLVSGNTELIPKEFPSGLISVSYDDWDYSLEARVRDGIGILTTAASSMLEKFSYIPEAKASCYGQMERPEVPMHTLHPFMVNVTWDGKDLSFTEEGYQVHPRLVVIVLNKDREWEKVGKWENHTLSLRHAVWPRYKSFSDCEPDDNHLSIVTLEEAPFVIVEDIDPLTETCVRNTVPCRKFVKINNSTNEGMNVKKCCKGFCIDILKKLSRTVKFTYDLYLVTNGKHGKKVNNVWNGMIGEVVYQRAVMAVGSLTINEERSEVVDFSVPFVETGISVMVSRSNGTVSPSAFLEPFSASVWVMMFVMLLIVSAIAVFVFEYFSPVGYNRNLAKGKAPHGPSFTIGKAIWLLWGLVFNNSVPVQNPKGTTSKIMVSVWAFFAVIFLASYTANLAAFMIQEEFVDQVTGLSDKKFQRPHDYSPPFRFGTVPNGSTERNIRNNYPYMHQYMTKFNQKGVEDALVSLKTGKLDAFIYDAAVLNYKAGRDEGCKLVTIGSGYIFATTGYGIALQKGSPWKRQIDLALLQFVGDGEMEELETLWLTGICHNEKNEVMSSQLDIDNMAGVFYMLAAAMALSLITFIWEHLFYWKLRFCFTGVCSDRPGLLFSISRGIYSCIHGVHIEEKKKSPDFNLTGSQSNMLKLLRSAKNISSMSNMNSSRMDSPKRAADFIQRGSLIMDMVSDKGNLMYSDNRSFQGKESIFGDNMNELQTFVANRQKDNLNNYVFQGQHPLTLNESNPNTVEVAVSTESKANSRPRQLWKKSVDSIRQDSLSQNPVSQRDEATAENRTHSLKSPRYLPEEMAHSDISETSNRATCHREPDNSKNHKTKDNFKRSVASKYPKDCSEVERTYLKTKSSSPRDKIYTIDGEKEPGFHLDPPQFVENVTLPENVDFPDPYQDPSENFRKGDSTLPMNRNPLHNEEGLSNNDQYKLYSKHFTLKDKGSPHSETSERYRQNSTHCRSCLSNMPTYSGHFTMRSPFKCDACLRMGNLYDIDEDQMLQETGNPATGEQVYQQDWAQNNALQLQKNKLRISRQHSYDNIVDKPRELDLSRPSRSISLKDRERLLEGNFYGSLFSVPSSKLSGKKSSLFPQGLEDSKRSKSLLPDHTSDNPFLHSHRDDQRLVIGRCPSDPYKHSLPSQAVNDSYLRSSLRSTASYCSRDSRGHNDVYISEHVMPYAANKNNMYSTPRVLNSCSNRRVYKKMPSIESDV

| Structure (SMILES) | Emax [1] | NMDAR2A B: log EC50 [2] | EC50 [3] | Emax [3] | NMDAR2C A: % maximal [3H]MK-801 binding relative to 1 mM glycine [4] | NMDAR2D A: % maximal [3H]MK-801 binding relative to 1 mM glycine [5] | EC50 [6] | AUC(0-t) (IV pharmacokinetics) | C0 (IV pharmacokinetics) | clearance (IV pharmacokinetics) | half-life (IV pharmacokinetics) | Vd (IV pharmacokinetics) | AUC(0-t) [7] | bioavailability [7] | Tmax [7] | Cmax [7] | Significance vs. vehicle (Sprague Dawley rats; 1 h post-dose) | % reduction in float time (Sprague Dawley rats; 1 h post-dose) | Significance vs. vehicle (Sprague Dawley rats; 24 h post-dose) | % reduction in float time (Sprague Dawley rats; 24 h post-dose) | other results |
| --- | --- | --- | --- | --- | --- | --- | --- | --- | --- | --- | --- | --- | --- | --- | --- | --- | --- | --- | --- | --- | --- |
| COc1ccc(CN2CC3(CCNC(=O)C3)C2=O)cc1 (racemic) [AA-rac, 2-(4-methoxybenzyl)-2,7-diazaspiro[3.5]nonane-1,6-dione] | 0% | − | < 1 nM | < 100% | − (−=0) | + (<100%=+) | < 1 nM | 6300 ng·h/mL | 5790 ng/mL | 5.28 mL/min/kg | 199 min | 0.56 L/kg | 17800 ng·h/mL | 57% | 40.2 min | 5810 ng/mL | Yes (found to be statistically significant (p<=0.05) from vehicle at dose level shown) | 77.4% | Yes (found to be statistically significant (p<=0.05) from vehicle at dose level shown) | 74.40% | CSF Cmax ([7]; CSF): 1466.9 ng/mL; Brain Cmax ([7]; brain): 951 ng/mL |
| COc1ccc(CN2C[C@]3(CCNC(=O)C3)C2=O)cc1 [AA-1, 2-(4-methoxybenzyl)-2,7-diazaspiro[3.5]nonane-1,6-dione] | 0% | − | < 1 nM | < 100% | − (−=0) | + (<100%=+) | ≥ 1 nM | 3430 ng·h/mL | 2340 ng/mL | 9.69 mL/min/kg | 67.2 min | 0.76 L/kg | 15500 ng·h/mL | 90% | 19.8 min | 8920 ng/mL | Yes (found to be statistically significant (p<=0.05) from vehicle at dose level shown) | 74.4% | Yes (found to be statistically significant (p<=0.05) from vehicle at dose level shown) | 69.50% |  |
